Data set [1] has as its target T1, FAM-RNA:MSUT2 ZF complex (poly(A):MSUT2 RNA-protein interaction) (Homo sapiens, UniProt Q6PJT7).
T1 sequence (Q6PJT7 601-736): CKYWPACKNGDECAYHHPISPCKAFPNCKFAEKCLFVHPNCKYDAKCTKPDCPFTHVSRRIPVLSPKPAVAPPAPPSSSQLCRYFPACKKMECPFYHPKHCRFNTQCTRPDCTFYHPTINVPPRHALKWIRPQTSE
Briefly: Fluorescence polarization assay of FAM-poly. It is filed as binding.

In a further data set the target is T2, PABPN1 (Homo sapiens, UniProt Q86U42).
T2 sequence (Q86U42 1-306): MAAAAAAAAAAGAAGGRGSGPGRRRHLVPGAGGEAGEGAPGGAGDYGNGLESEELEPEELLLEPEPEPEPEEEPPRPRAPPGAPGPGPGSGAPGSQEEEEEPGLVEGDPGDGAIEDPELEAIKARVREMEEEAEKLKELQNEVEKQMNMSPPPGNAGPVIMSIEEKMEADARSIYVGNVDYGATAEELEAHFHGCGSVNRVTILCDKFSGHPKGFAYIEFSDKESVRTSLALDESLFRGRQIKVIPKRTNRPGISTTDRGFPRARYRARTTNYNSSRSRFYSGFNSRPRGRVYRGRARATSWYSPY
Briefly: PABPN1 fluorescence polarization counter screen. It is filed as binding. On the technique in general: In fluorescence polarisation assays a small probe gives low polarisation when free and higher when bound to something large.

Data set [2] deals with T3, biotinylated RNA:GST-MSUT2 ZF (Homo sapiens, UniProt Q6PJT7).
T3 sequence (Q6PJT7 601-736): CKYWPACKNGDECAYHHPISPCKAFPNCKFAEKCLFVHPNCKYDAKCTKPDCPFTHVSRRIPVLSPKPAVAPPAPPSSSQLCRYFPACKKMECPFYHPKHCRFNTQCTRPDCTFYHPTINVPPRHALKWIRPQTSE
Kind of data set: AlphaScreen orthogonal poly. The settings on record: for inhibition activity by AlphaScreen: dose-response, 50 nM biotinylated RNA, 50 nM GST-MSUT2. The data set is classed as binding. A general note: In Alpha technology, singlet oxygen from a donor bead excites a nearby acceptor bead.

The conditions of data set [3]: cited from earlier work.
A further data set deals with poly(A). The settings on record: cited from earlier work.
The nature of a further data set: Cell viability assay. Particulars: human, HEK293 cells.
Data set [4] deals with albumin and α1-acid glycoprotein in the plasma. The settings on record: cited from earlier work.
The subject of data set [5] is hippocampus neuronal loss. The settings on record: rat model of chronic cerebral hypoperfusion; cited from earlier work.
In another data set the test system is efflux transporters. The settings on record: cited from earlier work.
Data set [6] has as its target T4, MSUT2 ZF (CCCH domains only) (UniProt Q6PJT7 601-736).
T4 sequence: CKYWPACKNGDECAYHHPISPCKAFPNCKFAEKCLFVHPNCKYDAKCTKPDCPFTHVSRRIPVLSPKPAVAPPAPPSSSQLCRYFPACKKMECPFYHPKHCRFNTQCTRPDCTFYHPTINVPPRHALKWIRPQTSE
Kind of data set: competition.

Some results are limits rather than exact numbers.

By IC50 is commonly meant the point on the concentration scale where inhibition reaches its midpoint. For orientation: viability means the share of living cells, or the viability signal relative to a control. As to `CC(C)/N=c1\cc2n(-c3ccc(Cl)cc3)c3ccccc3nc-2cc1Nc1ccc(Cl)cc1` [clofazimine], the 50% inhibitory concentration (IC50) in data set [1] worked out at 0.731 µM; on PABPN1 it was 23 µM. The “inhibition activity by AlphaScreen” value in [2] is listed as “dose-dependent inhibition activity”. Further, the “crossing of the blood-brain barrier” value in data set [3] is reported as “unable to cross the blood-brain barrier”. Moreover, the “interaction with poly(A)” value in the data set on poly(A) is reported as “little interaction”. This molecule also yielded a viability at 72 h in the data set “Cell viability assay” above 90%.
As to `CNCC[C@H](Oc1cccc2ccccc12)c1cccs1` [duloxetine], in data set [1] (acted over 4 log units), the “concentration range of inhibitory response in FP assay” value was in the range of 0.01 to 10 µM. This molecule yielded a concentration for half-maximal inhibition (IC50) against PABPN1 of 4.98 µM. For the same molecule, the “inhibition activity by AlphaScreen” value in data set [2] is reported as “dose-dependent inhibition activity”. For the same molecule, the “concentration range of inhibition measured by AS” value in data set [2] (over a single log unit) is 1.0 to 10 µM. In addition, in data set [3], the “penetration into cerebral spinal fluid” value was “crosses into cerebral spinal fluid at a much lower rate than other antidepressants”. For the same molecule, the “bound to albumin and α1-acid glycoprotein in the plasma” value in [4] is ~ 90%. Moreover, in data set [5], the “neuronal loss in the hippocampus” value is on record as “attenuated neuronal loss in the hippocampus”. The molecule also registered a viability at 72 h in “Cell viability assay” above 90%.
Molecule `CC(C(=O)O)c1ccc(-c2ccccc2)c(F)c1` (centres unmarked) [flurbiprofen] yielded an IC50 against PABPN1 of 6.69 µM.
As for `CN1C2CCCC1CC(NC(=O)c1nn(C)c3ccccc13)C2` (centres unmarked) [granisetron], the IC50 in data set [1] worked out at 0.306 µM; at PABPN1, 8.65 µM.
At PABPN1, `OCCOCCN1CCN(C(c2ccccc2)c2ccc(Cl)cc2)CC1` (centres unmarked) [hydroxyzine] yielded an IC50 of 9.09 µM.
For the molecule `CC(C)(C)NC(=O)[C@@H]1CN(Cc2cccnc2)CCN1C[C@@H](O)C[C@@H](Cc1ccccc1)C(=O)N[C@H]1c2ccccc2C[C@H]1O` [indinavir], the IC50 amounted to 0.247 µM in data set [1] and 35.8 µM on PABPN1.
As for `CC(C)(C)NC(=O)[C@@H]1C[C@@H]2CCCC[C@@H]2CN1C[C@@H](O)[C@H](Cc1ccccc1)NC(=O)[C@H](CC(N)=O)NC(=O)c1ccc2ccccc2n1` [saquinavir], it took 0.617 µM to reach half-maximal inhibition at PABPN1 (IC50). In addition, the “inhibition activity by AlphaScreen” value in data set [2] is given as “dose-dependent inhibition activity”. Further, in [3], the brain penetrance entry is “low brain penetrance”. Moreover, the efflux transporter substrate entry with efflux transporters is “substrate of efflux transporters”. Besides, the viability at 72 h, 40 µM in the data set “Cell viability assay” amounted to 65%.
AAAAAAAAAAAAAAA (ssRNA) [unlabeled poly(A)15 RNA]: in data set [6], the IC50 was 0.29 µM.

(Values after paper PMC8629322 (ACS chemical neuroscience, 2020).)
